Test results from patent US8153692B2, “Oral preparation for preventing or improving skin dryness” (Kyowa Hakko Bio Co., Ltd., priority 2005, dated 2012).

Test system: HOS:HR-1 mice
Test: Skin water content after oral ingestion of citrulline in feed (SKICON-200)
Type: in vivo
Conditions: CE-2 feed containing 1.0% by weight of L-citrulline, measured weekly from 1 to 5 weeks, relative to CE-2 feed group
Description: HOS:HR-1 mice (male, 5 weeks old, purchased from Charles River Co., Ltd.) were used in the test. The breeding conditions were that the room temperature was 22±2° C., the humidity was 35±15% and a feed and water were freely ingested.
Each test group consisted of 10 mice. A commercially available powder feed CE-2 (manufactured by Clea Japan) was fed to mice of the first group, CE-2 containing 1.0% by weight of L-citrulline (manufactured by Kyowa Hakko Kogyo Co., Ltd.) was fed to mice of the second group.
The water content of the skin surface on the back thigh upper portion of each mouse was measured with SKICON-200 (manufactured by IBS) every one week, from a week to five weeks after the start-up of the feeding of each feed. The measurement was conducted ten times for each mouse, and an average value of each mouse was obtained. Further, an average value of each test group was calculated.
The relative epidermal water content was calculated according to the following formula using the average value. Relative epidermal water content (%)=(A2/A1)×100 • A1: Epidermal water content of the first group • A2: Epidermal water content of the second group

NC(=O)NCCC[C@H](N)C(=O)O [citrulline, L-citrulline]
water content of the skin (relative epidermal water content): markedly improved
